Assay results as given in US20130245110A1, “USE FOR CANNABINOIDS” (priority 2008, published 2013).
Values joined by “and” are separate entries in the source; they are usually repeats but may differ in a detail not shown here. Equal entries are not always repeated.

Key:
[1] = biological target: T1, pancreatic lipase (Homo sapiens, UniProt P16233); conditions: subjects eating a 30% fat diet; cited from earlier work
T1 construct: host or cells: endogenous enzyme in subjects (in vivo)
T1 sequence (P16233 17-465): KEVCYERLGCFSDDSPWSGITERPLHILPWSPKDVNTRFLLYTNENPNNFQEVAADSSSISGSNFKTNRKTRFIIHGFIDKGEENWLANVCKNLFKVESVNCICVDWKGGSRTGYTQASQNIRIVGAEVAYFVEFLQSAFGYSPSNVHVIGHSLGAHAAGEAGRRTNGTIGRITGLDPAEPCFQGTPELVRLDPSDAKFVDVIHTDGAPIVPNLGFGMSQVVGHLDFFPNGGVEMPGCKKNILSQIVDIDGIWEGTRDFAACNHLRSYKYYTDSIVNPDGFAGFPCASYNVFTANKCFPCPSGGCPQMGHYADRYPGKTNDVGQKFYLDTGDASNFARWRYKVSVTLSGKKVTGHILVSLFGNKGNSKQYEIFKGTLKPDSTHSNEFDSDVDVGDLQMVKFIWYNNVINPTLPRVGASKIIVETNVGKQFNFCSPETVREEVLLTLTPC

[2] = tested on: rat isolated aortae; assay: In vitro vascular studies by wire myography
[3] = tested on: dietary induced obese (DIO) mouse model; assay: 24 h energy expenditure by indirect calorimetry, chronic dosing study; type: in vivo; conditions: DIO mice; 10 mg·kg−1 p.o.; relative to control, first 12 h post-dosing
From the text: The C57B1/6 mouse fed on a high fat diet for around 12 weeks is a standard model used to evaluate agents likely to affect metabolic disease including obesity, type II diabetes and dyslipidaemia. Thus both potential anti-obesity effects and effects on diabetic and dyslipidaemia parameters will be measured.
(§1) Once the acute studies were complete the mice were grouped in two groups of five mice for the chronic dosing study. Dosing was daily by oral gavage at 09:00-10:00.

[4] = tested on: dietary induced obese (DIO) mouse model; assay: Thermic response to food (energy expenditure after Complan meal), chronic dosing study; type: in vivo; design: Thermic response to food: unit not given here; conditions: DIO mice, days 15-17; for Thermic response to food: 10 mg·kg−1 p.o.
From the text: as §1
Energy expenditure consists of basal metabolic rate, exercise-induced energy expenditure, and non-exercise thermogenesis. The latter is the most likely area to be affected by anti-obesity agents. Non-exercise thermogenesis includes the thermic response to food, which in rodents can be measured by examining energy expenditure in response to a meal. This was measured after an oral dose of complan (see methods).

For `CCCCCCCCCCC[C@@H](C[C@@H]1OC(=O)[C@H]1CCCCCC)OC(=O)[C@H](CC(C)C)NC=O` [Orlistat], the “Block of triacylglycerol hydrolysis” value [1] is listed as 30%.
For `COc1ccc(CCN(C)CCCC(C#N)(c2ccc(OC)c(OC)c2)C(C)C)cc1OC` (stereo not shown) [verapamil, reference compound], the “Vasorelaxation of pre-constricted vessels” value [2] was “significant vasorelaxation”.
With `Cc1c(C(=O)NN2CCCCC2)nn(-c2ccc(Cl)cc2Cl)c1-c1ccc(Cl)cc1` [rimonabant, reference compound] the “Effect on 24 h energy expenditure (days 10-12)” value [3] was “small increase in energy expenditure”, the “Thermic response to food” value ([4]; Hour 0.44) was 1.11 and 1.21 and 2.21 and the “Thermic response to food” value ([4]; Hour 0.67) was 1.38 and 1.56 and 2.67. For the same compound, the “Thermic response to food” value ([4]; Hour 4.00) was 1.56 and 2.90 and 3.09 and the “Thermic response to food, effect in words” value ([4]; chronic-study doses (rimonabant 10, pure THCV 0.3 mg·kg−1 p.o.)) was “without effect”.
